The text below walks through data of patent US20240279205A1, “NOVEL BENZIMIDAZOLE DERIVATIVE” (Carna Biosciences, Inc., priority 2020, published 2024).

Counter-ions that a name gives are not always drawn.

This assay concerns the target T1, human STING (hSTING) (Homo sapiens, UniProt Q86WV6).
T1 construct: host or cells: HEK-Blue ISG cells (HEK293-derived SEAP reporter line)
The assay can be described thus: Inhibition test of intracellular human STING (hSTING) pathway using SEAP reporter cells (HEK-Blue ISG), stimulation with Compound 3. The settings on record: Compound 3 10 nM stimulation, 21 hours; for IC50: read-out: hSTING inhibitory activity. The arrangement: hSTING inhibitory activity: scale not given here. In kind it is cell-based. The method, then: Inhibition test of intracellular human STING (hSTING) pathway using reporter cells
Since STING activates the transcription factor IRF3 upon ligand stimulation, the activity of STING can be evaluated by a reporter assay using a secretory alkaline phosphatase (SEAP reporter) integrated downstream of an IRF-inducible promoter.
That is, the hSTING inhibitory activity of the test compound was evaluated using HEK-Blue™MISG cells (manufactured by Invivogen, #hkb-isg-1) incorporating a SEAP reporter. Activation of hSTING was performed by stimulation with the small molecule ligand Compound 3 as described in the literature (Ramanjulu, J. M., et al., Nature. 2018, 564 (7736), 439-443). HEK-Blue™MISG cells were seeded in a 96-well plate and cultured overnight at 37° C. in a 5% CO2 incubator. To each well of this cell culture plate, a test compound solution adjusted to a final concentration of 0.1 to 10 µM of the test compound was added, cultured for 1 hour in a CO2 incubator, and then Compound 3 (final concentration 10 nM) was added and further cultured in a CO2 incubator for 21 hours. After collecting the culture supernatant of each well, the reporter activity was measured by color development reaction with alkaline phosphatase.
The reporter activity of the test compound non-addition and Compound 3 addition group was set to 100%, and the reporter activity of the test compound non-addition and Compound 3 non-addition group was set to 0%. The IC50 value was determined by regression analysis of the inhibitory rate determined from the reporter activity at each compound concentration and the test compound concentration (logarithm).

T1 sequence (Q86WV6 whole entry H232R): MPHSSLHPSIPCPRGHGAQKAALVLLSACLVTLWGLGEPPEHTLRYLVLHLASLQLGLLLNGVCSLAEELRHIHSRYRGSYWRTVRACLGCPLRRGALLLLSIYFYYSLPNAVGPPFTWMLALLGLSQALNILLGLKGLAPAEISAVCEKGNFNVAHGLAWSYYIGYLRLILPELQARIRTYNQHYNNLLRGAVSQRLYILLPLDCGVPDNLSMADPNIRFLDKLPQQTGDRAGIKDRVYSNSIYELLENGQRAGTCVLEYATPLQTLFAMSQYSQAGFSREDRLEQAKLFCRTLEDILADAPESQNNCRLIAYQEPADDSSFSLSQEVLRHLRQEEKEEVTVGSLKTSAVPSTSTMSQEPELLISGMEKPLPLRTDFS

For `COC(=O)c1ccc2[nH]c(Nc3c[nH]c4ccc(Br)nc34)nc2c1` [Embodiment 34, methyl 2-[(5-bromo-1H-pyrrolo[3,2-b]pyridin-3-yl)amino]-1H-benzo[d]imidazole-5-carboxylate], the hSTING inhibitory activity entry was “* *”.

`O=C(O)c1ccc2[nH]c(Nc3c[nH]c4ccc(Br)nc34)nc2c1` [Embodiment 37, 2-[(5-bromo-1H-pyrrolo[3,2-b]pyridin-3-yl)amino]-1H-benzo[d]imidazole-5-carboxylic acid]: the IC50 was at least 10 µM.

As for `Cn1c(Nc2c[nH]c3ccc(Br)cc23)nc2ccc(Oc3ccccc3)cc21` [Embodiment 39, N-(5-bromo-1H-indol-3-yl)-1-methyl-6-phenoxy-1H-benzo[d]imidazol-2-amine], the hSTING inhibitory activity entry is “* *”.

As for `Cn1c(Nc2c[nH]c3ccc(Br)nc23)nc2ccc(Oc3ccccc3)cc21` [Embodiment 40, N-(5-bromo-1H-pyrrolo[3,2-b]pyridin-3-yl)-1-methyl-6-phenoxy-1H-benzo[d]imidazol-2-amine], the hSTING inhibitory activity entry is on record as “* * *”.

Turning to `Cn1c(Nc2c[nH]c3ccc(Br)nc23)nc2cc(Oc3ccccc3)ccc21` [Embodiment 41, N-(5-bromo-1H-pyrrolo[3,2-b]pyridin-3-yl)-1-methyl-5-phenoxy-1H-benzo[d]imidazol-2-amine], the hSTING inhibitory activity result is “* * *”.

For `Cn1c(Nc2c[nH]c3ccc(Br)nc23)nc2ccc(C(F)(F)F)cc21` [Embodiment 42, N-(5-bromo-1H-pyrrolo[3,2-b]pyridin-3-yl)-1-methyl-6-(trifluoromethyl)-1H-benzo[d]imidazol-2-amine], the IC50 is at least 10 µM.

For `Cn1c(Nc2c[nH]c3ccc(Br)nc23)nc2cc(C(F)(F)F)ccc21` [Embodiment 43, N-(5-bromo-1H-pyrrolo[3,2-b]pyridin-3-yl)-1-methyl-5-(trifluoromethyl)-1H-benzo[d]imidazol-2-amine], the hSTING inhibitory activity entry is “* * *”.

`Cn1c(Nc2c[nH]c3ccc(Cl)nc23)nc2ccc(C(F)(F)F)cc21` [Embodiment 46, N-(5-Chloro-1H-pyrrolo[3,2-b]pyridin-3-yl)-1-methyl-6-(trifluoromethyl)-1H-benzo[d] imidazol-2-amine]: the IC50 was at least 10 µM.

On to `C1=C(c2ccc3[nH]cc(Nc4nc5cc(Oc6ccccc6)ccc5[nH]4)c3n2)CCCC1` [Embodiment 48, N-[5-(Cyclohex-1-en-1-yl)-1H-pyrrolo[3,2-b]pyridin-3-yl]-5-phenoxy-1H-benzo[d]imidazol-2-a mine], for which the IC50 was 1 to 10 µM.

Turning to `Brc1cnc2c(Nc3nc4cc(Oc5ccccc5)ccc4[nH]3)c[nH]c2c1` [Embodiment 49, N-(6-bromo-1H-pyrrolo[3,2-b]pyridin-3-yl)-5-phenoxy-1H-benzo[d]imidazol-2-amine], the IC50 was in the range of 1 to 10 µM.

Take `c1ccc(Oc2ccc3[nH]c(Nc4c[nH]c5cc(-c6ccccc6)cnc45)nc3c2)cc1` [Embodiment 51, 5-phenoxy-N-(6-phenyl-1H-pyrrolo[3,2-b]pyridin-3-yl)-1H-benzo[d]imidazol-2-amine]: the hSTING inhibitory activity entry is “* *”.

For `FC(F)(F)c1ccc2[nH]cc(Nc3nc4cc(Oc5ccccc5)ccc4[nH]3)c2n1` [Embodiment 55, 5-phenoxy-N-[5-(trifluoromethyl)-1H-pyrrolo[3,2-b]pyridin-3-yl]-1H-benzo[d]imidazol-2-amine], the hSTING inhibitory activity result is on record as “* *”.

With `COc1cccc2[nH]c(Nc3c[nH]c4ccc(Br)nc34)nc12` [Embodiment 61, N-(5-bromo-1H-pyrrolo[3,2-b]pyridin-3-yl)-4-methoxy-1H-benzo[d]imidazol-2-amine], the IC50 was 1 to 10 µM.

For the compound `Brc1ccc2[nH]cc(Nc3nc4c(-c5ccccc5)cccc4[nH]3)c2n1` [Embodiment 62, N-(5-bromo-1H-pyrrolo[3,2-b]pyridin-3-yl)-4-phenyl-1H-benzo [d]imidazol-2-amine], the hSTING inhibitory activity result is “* *”.

In the case of `Cn1nccc1Oc1ccc2[nH]c(Nc3c[nH]c4ccc(Br)nc34)nc2c1` [Embodiment 63, N-(5-bromo-1H-pyrrolo[3,2-b]pyridin-3-yl)-5-[(1-methyl-1H-pyrazol-5-yl)oxy]-1H-benzo[d] imidazol-2-amine], the hSTING inhibitory activity result is on record as “* *”.

As for `CN(C)c1cccc(Oc2ccc3[nH]c(Nc4c[nH]c5ccc(Br)nc45)nc3c2)c1` [Embodiment 65, N-(5-bromo-1H-pyrrolo[3,2-b]pyridin-3-yl)-5-[3-(dimethylamino)phenoxy]-1H-benzo[d]imidazol-2-amine], the hSTING inhibitory activity result was “* *”.

Regarding `CS(=O)(=O)c1ccc(Oc2ccc3[nH]c(Nc4c[nH]c5ccc(Br)nc45)nc3c2)cc1` [Embodiment 66, N-(5-bromo-1H-pyrrolo[3,2-b]pyridin-3-yl)-5-[4-(methylsulfonyl)phenoxy]-1H-benzo[d]imidazol-2-amine], the IC50 was 1 to 10 µM.

As for `CS(=O)(=O)c1cccc(Oc2ccc3[nH]c(Nc4c[nH]c5ccc(Br)nc45)nc3c2)c1` [Embodiment 67, N-(5-bromo-1H-pyrrolo[3,2-b]pyridin-3-yl)-5-[3-(methylsulfonyl)phenoxy]-1H-benzo[d]imidazol-2-amine], the hSTING inhibitory activity result is recorded as “* *”.

For `CS(=O)(=O)c1ccccc1Oc1ccc2[nH]c(Nc3c[nH]c4ccc(Br)nc34)nc2c1` [Embodiment 68, N-(5-bromo-1H-pyrrolo[3,2-b]pyridin-3-yl)-5-[2-(methylsulfonyl)phenoxy]-1H-benzo[d]imidazol-2-amine], the IC50 was at least 10 µM.

Regarding `Brc1ccc2[nH]cc(Nc3nc4cc(OCc5ccccc5)ccc4[nH]3)c2n1` [Embodiment 69, 5-(benzyloxy)-N-(5-bromo-1H-pyrrolo[3,2-b]pyridin-3-yl)-1H-benzo[d]imidazol-2-amine], the hSTING inhibitory activity entry was “* *”.

On to `CN(C)c1ccnc2c(Nc3nc4cc(Oc5ccccc5)ccc4[nH]3)c[nH]c12` [Embodiment 70, N7,N7-dimethyl-N3-(5-phenoxy-1H-benzo[d]imidazol-2-yl)-1H-pyrrolo[3,2-b]pyridine-3,7-diamine formate], for which the IC50 was at least 10 µM.

As for `Cn1cc(-c2ccnc3c(Nc4nc5cc(Oc6ccccc6)ccc5[nH]4)c[nH]c23)cn1` [Embodiment 71, N-[7-(1-methyl-1H-pyrazol-4-yl)-1H-pyrrolo[3,2-b]pyridin-3-yl]-5-phenoxy-1H-benzo[d]imidazole-2-amine formate], the hSTING inhibitory activity result is “* *”.

For the compound `FC(F)(F)c1cnc2[nH]cc(Nc3nc4cc(Oc5ccccc5)ccc4[nH]3)c2c1` [Embodiment 74, 5-phenoxy-N-[5-(trifluoromethyl)-1H-pyrrolo[2,3-b]pyridin-3-yl]-1H-benzo[d]imidazol-2-amine formate], the IC50 was 1 to 10 µM.

Consider `CN(c1ccccc1)S(=O)(=O)c1ccc2[nH]c(Nc3c[nH]c4ccc(Cl)nc34)nc2c1` [Embodiment 75, 2-[(5-Chloro-1H-pyrrolo[3,2-b]pyridin-3-yl)amino]-N-methyl-N-phenyl-1H-benzo[d]imidazole-5-sulfonamide], for which the hSTING inhibitory activity result is “* *”.

As for `Oc1ccnc2c(Nc3nc4cc(Oc5ccccc5)ccc4[nH]3)c[nH]c12` [Embodiment 76, 3-[(5-phenoxy-1H-benzo[d]imidazol-2-yl)amino]-1H-pyrrolo [3,2-b]pyridin-7-ol formate], the IC50 is at least 10 µM.

Turning to `CN(C)Cc1cccc(Oc2ccc3[nH]c(Nc4c[nH]c5ccc(Cl)nc45)nc3c2)c1` [Embodiment 81, N-(5-chloro-1H-pyrrolo[3,2-b]pyridin-3-yl)-5-{3-[(dimethylamino)methyl]phenoxy}-1H-benzo [d]imidazole-2-amine formate], the IC50 is 1 to 10 µM.

Turning to `CN(C)Cc1ccccc1Oc1ccc2[nH]c(Nc3c[nH]c4ccc(Cl)nc34)nc2c1` [Embodiment 83, N-(5-chloro-1H-pyrrolo[3,2-b]pyridin-3-yl)-5-{2-[(dimethylamino)methyl]phenoxy}-1H-benzo [d]imidazole-2-amine formate], the IC50 was at least 10 µM.

Consider `Cc1ccc2[nH]c(Nc3c[nH]c4ccc(Cl)nc34)nc2c1C` [Embodiment 85, N-(5-Chloro-1H-pyrrolo[3,2-b]pyridin-3-yl)-4,5-dimethyl-1H-benzo[d]imidazol-2-amine], for which the hSTING inhibitory activity entry is on record as “* *”.

Take `CCCCn1c(Nc2c[nH]c3ccc(Br)nc23)nc2cc(Oc3ccccc3)ccc21` [Embodiment 90, N-(5-bromo-1H-pyrrolo[3,2-b]pyridin-3-yl)-1-butyl-5-phenoxy-1H-benzo[d]imidazol-2-amine]: the IC50 is 1 to 10 µM.

In the case of `COCCn1c(Nc2c[nH]c3ccc(Br)nc23)nc2cc(Oc3ccccc3)ccc21` [Embodiment 92, N-(5-bromo-1H-pyrrolo[3,2-b]pyridin-3-yl)-1-(2-methoxyethyl)-5-phenoxy-1H-benzo[d]imidazol-2-amine], the IC50 is 1 to 10 µM.

For the compound `Clc1ccc2[nH]cc(Nc3nc4cc(-c5ccncc5)ccc4[nH]3)c2n1` [Embodiment 96, N-(5-Chloro-1H-pyrrolo[3,2-b]pyridin-3-yl)-5-(pyridin-4-yl)-1H-benzo[d]imidazol-2-amine], the hSTING inhibitory activity result is recorded as “* *”.
